From ChEMBL document CHEMBL3603791, “Role of polyol moiety of amphotericin B in ion channel formation and sterol selectivity in bilayer membrane” (Bioorg Med Chem, 2015)
In brackets after ≈: the same amount, converted by molar mass.

Legend:
[1] = tested on: Candida albicans; assay: Antimicrobial activity against Candida albicans ATCC 36082 incubated for 2 days at 35 degC by CLSI protocol based method; assay type: functional; conditions: ATCC 36082, 48 h
[2] = Toxicity in human erythrocytes assessed as induction of hemolysis incubated for 18 hrs; assay type: cell-based, Erythrocyte
[3] = Induction of potassium influx in sterol-free and cholesterol and ergosterol-containing POPC liposomes at 32 uM by BCECF dye based fluorimetric assay; assay type: physicochemical
[4] = Toxicity in human erythrocytes assessed as induction of hemolysis at 15 uM incubated for 18 hrs; assay type: cell-based, Erythrocyte; conditions: read-out: Activity

MIC [1] | Activity [3] | Compound | HC50 at 18 h [2] | hemolysis at 18 h, 15 µM [4]
2 µM (≈ 1.88 µg/mL) | Not Active | C[C@@H]1[C@H](O)[C@@H](C)/C=C/C=C/C=C/C=C/C=C/C=C/C=C/[C@H](O[C@@H]2O[C@H](C)[C@@H](O)[C@H](N)[C@@H]2O)C[C@@H]2O[C@](O)(C[C@@H](O)C[C@@H](O)[C@H](O)C(=O)C[C@@H](O)C[C@@H](O)CC(=O)O[C@H]1C)C[C@H](O)[C@H]2C(=O)O | > 15 µM | 10%
4 µM (≈ 3.76 µg/mL) | Not Active | C[C@@H]1[C@H](O)[C@@H](C)/C=C/C=C/C=C/C=C/C=C/C=C/C=C/[C@H](O[C@@H]2O[C@H](C)[C@@H](O)[C@H](N)[C@@H]2O)C[C@@H]2O[C@](O)(C[C@@H](O)C[C@@H](O)[C@H](O)[C@H](O)C[C@@H](O)C[C@@H](O)CC(=O)O[C@H]1C)C[C@H](O)[C@H]2C(=O)O | 5.4 µM | 
1 µM (≈ 0.94 µg/mL) | Not Active | C[C@@H]1[C@H](O)[C@@H](C)/C=C/C=C/C=C/C=C/C=C/C=C/C=C/[C@H](O[C@@H]2O[C@H](C)[C@@H](O)[C@H](N)[C@@H]2O)C[C@@H]2O[C@](O)(C[C@@H](O)C[C@@H](O)[C@H](O)[C@@H](O)C[C@@H](O)C[C@@H](O)CC(=O)O[C@H]1C)C[C@H](O)[C@H]2C(=O)O | 6.9 µM | 

Compound | MIC [1] | Activity [3] | HC50 at 18 h [2] | hemolysis at 18 h, 15 µM [4]
C[C@@H]1[C@H](O)[C@@H](C)/C=C/C=C/C=C/C=C/C=C/C=C/C=C/[C@H](O[C@@H]2O[C@H](C)[C@@H](O)[C@H](N)[C@@H]2O)C[C@@H]2O[C@](O)(C[C@@H](O)C[C@@H](O)[C@H](O)CC[C@@H](O)C[C@@H](O)CC(=O)O[C@H]1C)C[C@H](O)[C@H]2C(=O)O [AMPHOTERICIN B] | 0.25 µM (≈ 0.231 µg/mL) | Active | 3.2 µM | 
